Data from patent publication US9371289B2, “Phenoxyethyl dihydro-1H-isoquinoline compounds” (Eli Lilly and Company, priority 2013, dated 2016).
Structures can show the parent of a compound that is named as a salt.

Columns and labels:
human EP1 = target: T1, human EP1 (Homo sapiens, UniProt P34995); experiment: In vitro binding to human EP1 ([3H]-PGE2 displacement, HEK293 membranes); settings: [3H]-PGE2 binding, hEP1 membranes from recombinant HEK293 cells
T1 construct: expressed in transfected cells
T1 sequence (P34995 1-402): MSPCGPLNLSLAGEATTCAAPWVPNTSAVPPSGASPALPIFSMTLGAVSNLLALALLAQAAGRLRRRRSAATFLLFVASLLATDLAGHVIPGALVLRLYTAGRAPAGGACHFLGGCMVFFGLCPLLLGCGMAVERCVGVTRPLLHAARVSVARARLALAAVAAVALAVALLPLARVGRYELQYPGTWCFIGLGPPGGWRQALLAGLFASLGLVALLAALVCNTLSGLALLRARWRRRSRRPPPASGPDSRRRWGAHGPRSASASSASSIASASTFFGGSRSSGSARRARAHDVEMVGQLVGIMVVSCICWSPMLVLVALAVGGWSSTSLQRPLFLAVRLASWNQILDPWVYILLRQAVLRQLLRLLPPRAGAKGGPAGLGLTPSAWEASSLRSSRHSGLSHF
Procedure: (§1) hEP1 and hEP4 membranes are prepared from recombinant HEK293 cells stably expressing the human EP1 (Genbank accession number AY275470) or EP4 (Genbank accession number AY429109) receptors. hEP2 and hEP3 membranes are prepared from HEK293 cells transiently transfected with EP2 (Genbank accession number AY275471) or EP3 (isoform VI: Genbank accession number AY429108) receptor plasmids. Frozen cell pellets are homogenized in homogenization buffer using a Teflon/glass homogenizer. Membrane protein is aliquoted and quick frozen on dry ice prior to storage at −80° C. […]
(§2) Kd values for [3H]-PGE2 binding to each receptor are determined by saturation binding studies or homologous competition. […] Nonspecific binding is calculated by comparing binding in the presence and absence of 2 μM of PGE2. The membranes are harvested by filtration (TomTek harvester), washed 4 times with cold buffer (10 mM MES pH 6.0 with KOH, 10 mM MgCl2), dried in a 60° C. oven, and the radioactivity is quantified as counts per minute (CPM) using a TopCount® detector. Percent specific binding is calculated as the percent of the binding in the absence of any inhibitor, corrected for non-specific binding in the presence of 2 μM of PGE2. […]

human EP2 = target: T2, human EP2 (Homo sapiens, UniProt P43116); experiment: In vitro binding to human EP2 ([3H]-PGE2 displacement, HEK293 membranes); settings: [3H]-PGE2 binding, hEP2 membranes from transiently transfected HEK293 cells
T2 construct: expressed in transfected cells; host or cells: HEK293 (transient), membranes
T2 sequence (P43116 whole entry): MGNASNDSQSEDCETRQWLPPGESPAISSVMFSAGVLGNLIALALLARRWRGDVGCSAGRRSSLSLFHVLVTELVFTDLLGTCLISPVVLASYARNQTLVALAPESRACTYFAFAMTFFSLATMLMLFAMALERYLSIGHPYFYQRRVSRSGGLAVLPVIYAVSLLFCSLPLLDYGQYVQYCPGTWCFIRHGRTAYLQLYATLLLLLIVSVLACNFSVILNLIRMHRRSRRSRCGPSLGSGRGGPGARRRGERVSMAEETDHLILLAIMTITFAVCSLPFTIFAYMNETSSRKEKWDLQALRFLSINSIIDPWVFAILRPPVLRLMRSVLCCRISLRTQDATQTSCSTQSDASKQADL
Procedure: as §1, §2

rat EP4 = target: T3, rat EP4 (Rattus norvegicus, UniProt P43114); experiment: In vitro rat EP4 functional antagonist activity (cAMP HTRF); assay type: cell-based; settings: HEK293 cells expressing rat EP4; PGE2 at EC80; n=1; read-out: IC50 measured at rat EP4 (cAMP)
T3 construct: expressed in transfected cells
T3 sequence (P43114 whole entry): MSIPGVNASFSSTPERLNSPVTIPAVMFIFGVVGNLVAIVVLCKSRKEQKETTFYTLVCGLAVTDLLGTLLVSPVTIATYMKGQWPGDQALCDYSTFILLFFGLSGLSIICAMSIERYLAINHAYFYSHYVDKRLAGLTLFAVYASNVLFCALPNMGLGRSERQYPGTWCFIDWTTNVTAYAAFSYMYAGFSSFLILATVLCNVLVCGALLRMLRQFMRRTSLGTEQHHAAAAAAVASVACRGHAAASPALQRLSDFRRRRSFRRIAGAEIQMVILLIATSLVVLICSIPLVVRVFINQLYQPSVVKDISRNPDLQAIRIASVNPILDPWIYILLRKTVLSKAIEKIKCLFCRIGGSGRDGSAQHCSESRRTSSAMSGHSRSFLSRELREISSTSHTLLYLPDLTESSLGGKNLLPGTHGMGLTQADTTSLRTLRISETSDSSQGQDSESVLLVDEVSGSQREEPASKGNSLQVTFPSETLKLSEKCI
Procedure: Rat EP4 cDNA (Genebank Accession# NM_03276) is cloned into pcDNA 3.1 vector and subsequently transfected in HEK293 cells for receptor expression. Rat EP4 stable clone is scaled up and then frozen down as cell bank for future compounds screening. To test EP4 antagonist compounds in rEP4 cells, thaw the frozen cells and then resuspend cells in cAMP assay buffer. The cAMP buffer is made by HBSS without Phenol Red (Hyclone, SH30268) supplemented with 20 mM HEPES (Hyclone, SH30237), 0.1% BSA (Gibco, 15260) and 125 μM IBMX (Sigma, 15879) (see e.g., Murase, A., et al., Life Sciences, 82:226-232 (2008)). The cells are plated into 96-well half area flat-bottom polystyrene black plates (Costar 3694). Compounds are serial diluted with DMSO to give 10-point concentration response curves. Then diluted compounds are added into cAMP assay buffer which contains PGE2 (Cayman 14010, in a concentration predetermined to produce an EC80) at ratio of DMSO/buffer at 1/100. The cells are treated with compounds in the presence of PGE2 (EC80 concentration) for 30 minutes at room temperature. The cAMP levels generated from the cells are quantified by a cAMP HTRF assay kit (Cisbio 62AM4PEC). The plates are read on an EnVision plate reader using HTRF optimized protocol (PerkinElmer). IC50s are calculated using Graphpad Prism (v. 4) nonlinear regression, sigmoidal dose response curve fitting.

human EP4 [1] = target: T4, human EP4 (Homo sapiens, UniProt P35408); experiment: In vitro human EP4 functional antagonist activity (inhibition of PGE2-stimulated cAMP production, HTRF); assay type: cell-based; set-up: expressed in transfected cells; settings: HEK293 cells stably expressing human EP4; PGE2 at EC80 (0.188 nM); read-out: IC50 measured at human EP4 (inhibition of PGE2-stimulated cAMP production)
T4 sequence (P35408 whole entry): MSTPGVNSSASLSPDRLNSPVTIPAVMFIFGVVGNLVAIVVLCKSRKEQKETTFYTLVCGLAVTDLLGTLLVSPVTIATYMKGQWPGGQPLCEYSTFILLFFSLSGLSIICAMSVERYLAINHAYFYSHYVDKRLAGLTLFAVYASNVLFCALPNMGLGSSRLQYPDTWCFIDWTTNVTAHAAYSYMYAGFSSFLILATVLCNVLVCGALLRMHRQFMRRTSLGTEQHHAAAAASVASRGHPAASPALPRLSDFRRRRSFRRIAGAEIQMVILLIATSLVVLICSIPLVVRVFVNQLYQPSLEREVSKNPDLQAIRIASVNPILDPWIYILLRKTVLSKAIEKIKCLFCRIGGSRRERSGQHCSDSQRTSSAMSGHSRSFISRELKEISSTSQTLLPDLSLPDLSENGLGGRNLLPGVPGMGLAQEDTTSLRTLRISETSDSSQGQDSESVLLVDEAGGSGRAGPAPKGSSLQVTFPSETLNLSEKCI
Procedure: Assays are conducted in recombinant HEK293 cells stably expressing human EP4 receptor. The cell lines are maintained by culturing in DMEM with high glucose and pyridoxine hydrochloride (Invitrogen) supplemented with 10% fetal bovine serum (FBS), 1 mM sodium pyruvate, 10 mM HEPES, 500 μg/mL geneticin and 2 mM L-glutamine. Confluent cultures are grown at 37° C. in an atmosphere containing 5% CO2. Cells are harvested using 0.25% Trypsin-EDTA, suspended in freeze media (FBS with 6% DMSO) at 10^7 cells/mL and aliquots are stored in liquid nitrogen. Just before assay, cells are thawed in DMEM, centrifuged, and resuspended in cAMP buffer.
The inhibition of PGE2-stimulated cAMP production by EP4 antagonists is measured using HTRF (Cisbio catalogue #62AM4PEB). An aliquot equivalent to 4000 cells is incubated with 50 μL cAMP assay buffer containing PGE2 in a concentration predetermined to produce an EC80 (0.188 nM PGE2 from Sigma, catalog # P5640-10 mg) and EP4 antagonists at room temperature for 20 minutes. cAMP assay buffer contains 500 mL HBSS, 0.1% BSA, 20 mM HEPES and 200 μM IBMX (Sigma I5879). […] The HTRF signal is detected using an EnVision plate reader (Perkin-Elmer) to calculate the ratio of fluorescence at 665 nm to that at 620 nm. […]

human EP4 [2] = target: T4, human EP4; experiment: In vitro binding to human EP4 ([3H]-PGE2 displacement, HEK293 membranes); set-up: expressed in transfected cells; settings: [3H]-PGE2 binding, hEP4 membranes from recombinant HEK293 cells
Procedure: as §1, §2

human EP4 [3] = target: T4, human EP4; experiment: In vitro antagonist activity in human whole blood (reversal of PGE2 inhibition of LPS-induced TNFα production); assay type: cell-based; set-up: Blood is collected from normal volunteer donors; from tissue; host or cells: human whole blood from volunteer donors; settings: LPS 10 μg/mL with 10 nM PGE2, geometric mean ± standard deviation, read-out: IC50 in human blood TNFα induction assay
Text: The inhibitory effects of PGE2 on LPS-induced TNFα production from macrophages/monocytes are believed to be mediated by EP4 receptors (See Murase, A., et al., Life Sciences, 82:226-232 (2008)). The ability of the compound of Example 1 to reverse the inhibitory effect of PGE2 on LPS-induced TNFα production in human whole blood is an indicia of functional activity.
Blood is collected from normal volunteer donors into sodium heparin vacutainer tubes. Donors have not taken NSAIDs or celecoxib within 48 hours or glucocorticoids within two weeks prior to the donation. All tubes/donor are pooled into 50 mL Falcon conical centrifuge tubes and 98 μL/well is distributed into 96-well tissue culture plates (Falcon 3072). […] TNFα levels in 2 μL plasma are quantified by a commercially available enzyme immunoassay (R&D Systems DY210), using Immulon 4 HBX plates (Thermo 3855) and 3,3′,5,5′ tetramethylbiphenyl-4,4′-diamine substrate (KPL 50-76-03). The plates are read at A450-A650 on a plate reader (Molecular Devices Versamax) using SOFTmaxPRO (v. 4.3.1) software. IC50s are calculated using Graphpad Prism (v. 4) nonlinear regression, with sigmoidal dose response curve fitting. Results are expressed as the geometric mean±standard deviation; n=number of independent determinations.

human EP3 = target: T5, human EP3 (Homo sapiens, UniProt P43115); experiment: In vitro binding to human EP3 ([3H]-PGE2 displacement, HEK293 membranes); settings: [3H]-PGE2 binding, hEP3 (isoform VI) membranes from transiently transfected HEK293 cells
T5 construct: expressed in transfected cells; host or cells: HEK293 (transient), membranes
T5 sequence (P43115 1-374 isoform P43115-4): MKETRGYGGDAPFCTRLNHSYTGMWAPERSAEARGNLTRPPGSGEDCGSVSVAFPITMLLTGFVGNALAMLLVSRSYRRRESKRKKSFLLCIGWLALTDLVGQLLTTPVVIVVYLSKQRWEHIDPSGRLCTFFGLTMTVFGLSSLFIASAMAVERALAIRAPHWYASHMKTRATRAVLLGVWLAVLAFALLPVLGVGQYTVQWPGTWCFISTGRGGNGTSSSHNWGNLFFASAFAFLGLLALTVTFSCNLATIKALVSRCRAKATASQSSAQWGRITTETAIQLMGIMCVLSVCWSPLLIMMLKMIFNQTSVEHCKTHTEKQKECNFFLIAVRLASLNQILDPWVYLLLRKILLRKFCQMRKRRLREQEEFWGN
Procedure: as §1, §2

SMILES | Ki (human EP1) [nM] | Ki (human EP2) [nM] | IC50 (rat EP4) [nM] | IC50 (human EP4 [1]) [nM] | Ki (human EP4 [2]) [nM] | IC50 (human EP4 [3]) [nM] | Ki (human EP3) [nM]
C[C@H](NC(=O)[C@H]1Cc2ccccc2CN1CCOc1ccccc1)c1ccc(C(=O)O)cc1 [Example 1, 4-[(1S)-1-[[(3R)-2-(2-phenoxyethyl)-3,4-dihydro-1H-isoquinoline-3-carbonyl]amino]ethyl]benzoic acid] | 7920 ± 5810 | 1320 ± 1780 | 2 | 0.752 ± 0.538 | 0.403 ± 0.247 | 39 ± 21 | > 14800
C[C@H](NC(=O)[C@H]1Cc2ccccc2CN1CCOc1ccc(F)cc1)c1ccc(C(=O)O)cc1 [Example 2, 4-[(1S)-1-[[(3R)-2-(2-(4-fluorophenoxy)ethyl)-3,4-dihydro-1H-isoquinoline-3-carbonyl]amino]ethyl]benzoic acid hydrochloride] | 4650 | 331 ± 72 | 6.7 | 0.45 ± 0.256 | 0.38 ± 0.142 | 61 ± 55 | > 14600
